Experimental data published in the COVID Moonshot data (paper PMC7615835).
“And” between values parts separate entries of the source, which are not always exact repeats. Equal values may be shown once.

What was measured:
[1] = a549
[2] = target: SARS-CoV-2 Main Protease (SARS-CoV-2) (UniProt P0DTD1)
[3] = in vivo, iv
[4] = helaace2
[5] = human; plasma
[6] = rat; plasma
[7] = target: PSP (Eurofins): hr ERalpha (Binding) (AC50) (UniProt P03372)
[8] = not given; remark: listed apart in the source
[9] = human; liver_microsomes
[10] = mouse; hepatocytes
[11] = cattle; serum
[12] = mouse; liver_microsomes
[13] = not given; remark: listed apart in the source
[14] = mouse; plasma
[15] = rat; in vivo; po; 10.0 mg/kg
[16] = dog; liver_microsomes
[17] = pampa
SARS-CoV-2 (SARS-CoV-2) = settings: helaace2

Chain of UniProt P03372 (P03372 whole entry, looked up): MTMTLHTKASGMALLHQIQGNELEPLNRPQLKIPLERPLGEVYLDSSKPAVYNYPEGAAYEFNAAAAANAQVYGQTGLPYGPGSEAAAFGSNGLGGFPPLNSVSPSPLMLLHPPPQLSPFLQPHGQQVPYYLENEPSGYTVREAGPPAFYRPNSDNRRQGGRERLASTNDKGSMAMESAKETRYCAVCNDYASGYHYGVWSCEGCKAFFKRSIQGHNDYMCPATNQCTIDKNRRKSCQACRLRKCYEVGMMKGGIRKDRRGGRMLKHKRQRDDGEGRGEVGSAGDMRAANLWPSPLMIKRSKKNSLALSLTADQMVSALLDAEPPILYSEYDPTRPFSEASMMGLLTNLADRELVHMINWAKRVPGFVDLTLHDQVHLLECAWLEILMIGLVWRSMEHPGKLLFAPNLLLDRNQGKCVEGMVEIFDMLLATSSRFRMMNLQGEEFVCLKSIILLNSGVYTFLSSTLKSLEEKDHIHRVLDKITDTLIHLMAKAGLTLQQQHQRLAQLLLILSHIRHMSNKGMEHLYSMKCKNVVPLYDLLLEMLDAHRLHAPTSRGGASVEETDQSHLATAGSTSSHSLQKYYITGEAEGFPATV

SMILES: CS(=O)(=O)c1ccc2cncc(NC(=O)C3CCNc4cc(Cl)c(Cl)cc43)c2c1 (stereo not given)
- logD: 3.1
- CC50 [1]: > 9.99 µM
- IC50 [2]: 0.526 µM
- AUC(0-inf) ([3]; rat, 0.5 mg/kg): 285 ng·h/mL and 378 ng·h/mL and 178 ng·h/mL
- AUC(0-t) ([3]; rat, 0.5 mg/kg): 282 ng·h/mL and 377 ng·h/mL and 175 ng·h/mL
- C0 ([3]; rat, 0.5 mg/kg): 741 ng/mL and 1320 ng/mL and 725 ng/mL
- MRT inf ([3]; rat, 0.5 mg/kg): 28.6 min and 41 min and 22.8 min
- MRT last ([3]; rat, 0.5 mg/kg): 38 min and 27.8 min and 21 min
- Vd ([3]; rat, 0.5 mg/kg): 1.2 L/kg and 0.645 L/kg and 1.15 L/kg
- clearance ([3]; rat, 0.5 mg/kg): 29.2 mL/min/kg and 22.4 mL/min/kg and 50.2 mL/min/kg
- half-life ([3]; rat, 0.5 mg/kg): 38.9 min and 29.9 min and 21.2 min

SMILES: CCC(CC)COC(=O)[C@H](C)NP(=O)(OC[C@H]1O[C@@](C#N)(c2ccc3c(N)ncnn23)[C@H](O)[C@@H]1O)Oc1ccccc1 (stereo in doubt)
- CC50 [4]: 10.8 µM and 27 µM and 16.4 µM

SMILES: O=C(Nc1cncc2ccccc12)C1CN(S(=O)(=O)CC2CNC2)Cc2ccc(Cl)cc21 (stereo not given)
- logD: 0.2
- fraction unbound [5]: 0.295
- fraction unbound [6]: 0.335
- AC50 [7]: 20.4 µM
- Fa ([8]; mdck): 30.7%
- Papp A→B ([8]; mdck): 1.6 ×10⁻⁶ cm/s
- recovery ([8]; mdck): 93%
- Papp A→B ([8]; mdck_mdr1): 0.517 ×10⁻⁶ cm/s and 0.7 ×10⁻⁶ cm/s
- Papp B→A ([8]; mdck_mdr1): 0.896 ×10⁻⁶ cm/s and 0.9 ×10⁻⁶ cm/s
- microsomal CLint [9]: 10 µL/min/mg
- AUC(0-inf) ([3]; rat, 0.5 mg/kg): 83.4 ng·h/mL and 86.5 ng·h/mL
- AUC(0-t) ([3]; rat, 0.5 mg/kg): 76.9 ng·h/mL and 76.7 ng·h/mL
- C0 ([3]; rat, 0.5 mg/kg): 406 ng/mL and 381 ng/mL
- MRT inf ([3]; rat, 0.5 mg/kg): 67.2 min and 61.8 min
- MRT last ([3]; rat, 0.5 mg/kg): 33.2 min and 32 min
- Vd ([3]; rat, 0.5 mg/kg): 5.86 L/kg and 6.06 L/kg
- clearance ([3]; rat, 0.5 mg/kg): 94.6 mL/min/kg and 91.2 mL/min/kg
- half-life ([3]; rat, 0.5 mg/kg): 91.2 min

SMILES: O=C(Nc1cncc2ccccc12)[C@@H]1CCNc2cc(Cl)c(Cl)cc21 (stereo in doubt)
- logD: 3.8
- fraction unbound [5]: 0.049 (2×) and 0.023
- recovery [5]: 105%
- half-life [10]: 83 min
- fraction unbound [6]: 0.033 (2×) and 0.029
- recovery [6]: 98.4%
- fraction unbound [11]: 0.584
- recovery [11]: 70.6%
- half-life [12]: 9.3 min
- microsomal CLint [12]: 290 µL/min/mg and 186 µL/min/mg
- logD [13]: 3.4 and 3.54
- fraction unbound [14]: 0.039
- recovery [14]: 98.1%
- AUC(0-inf) [15]: 257 ng·h/mL
- AUC(0-t) [15]: 247 ng·h/mL
- CL/F [15]: 653 mL/min/kg
- Cmax [15]: 40.4 ng/mL
- MRT last [15]: 397 min
- Tmax [15]: 120 min
- bioavailability [15]: 10.2% (2×) and 11.9%
- half-life [15]: 255 min
- half-life [16]: 27.9 min
- microsomal CLint [16]: 62.2 µL/min/mg
- microsomal CLint [9]: 40 µL/min/mg
- IC50 [2]: < 0.05 µM and 0.0474 µM
- AUC(0-inf) ([3]; rat, 0.5 mg/kg): 198 ng·h/mL and 170 ng·h/mL
- C0 ([3]; rat, 0.5 mg/kg): 559 ng/mL and 452 ng/mL
- MRT inf ([3]; rat, 0.5 mg/kg): 33.1 min and 29.5 min
- MRT last ([3]; rat, 0.5 mg/kg): 26.2 min and 27.9 min
- Vd ([3]; rat, 0.5 mg/kg): 1.46 L/kg and 1.94 L/kg
- clearance ([3]; rat, 0.5 mg/kg): 49.6 mL/min/kg and 60.7 mL/min/kg
- AUC(0-inf) ([3]; rat, 1.0 mg/kg): 220 ng·h/mL and 249 ng·h/mL
- C0 ([3]; rat, 1.0 mg/kg): 324 ng/mL and 410 ng/mL
- MRT inf ([3]; rat, 1.0 mg/kg): 44.1 min and 46 min
- MRT last ([3]; rat, 1.0 mg/kg): 44.8 min and 42.7 min
- Vd ([3]; rat, 1.0 mg/kg): 3.49 L/kg and 2.99 L/kg
- clearance ([3]; rat, 1.0 mg/kg): 75.9 mL/min/kg and 68 mL/min/kg
- half-life ([3]; rat, 1.0 mg/kg): 38.2 min and 32.5 min

SMILES: O=C(Nc1cncc2ccncc12)[C@H]1CCOc2ccc(Cl)cc21 (stereo in doubt)
- logD: 2.6
- CC50 [1]: > 9.99 µM
- half-life [12]: 7.8 min
- microsomal CLint [12]: 223 µL/min/mg
- logD [13]: 2.59 and 2.5
- fraction unbound [14]: 0.219
- recovery [14]: 102%
- AUC(0-inf) ([3]; mouse, 0.5 mg/kg): 113 ng·h/mL and 122 ng·h/mL
- AUC(0-t) ([3]; mouse, 0.5 mg/kg): 112 ng·h/mL and 118 ng·h/mL
- C0 ([3]; mouse, 0.5 mg/kg): 525 ng/mL and 604 ng/mL
- MRT inf ([3]; mouse, 0.5 mg/kg): 13.7 min and 14.6 min
- MRT last ([3]; mouse, 0.5 mg/kg): 13 min
- Vd ([3]; mouse, 0.5 mg/kg): 1.01 L/kg and 1 L/kg
- clearance ([3]; mouse, 0.5 mg/kg): 73.5 mL/min/kg and 68.7 mL/min/kg
- half-life ([3]; mouse, 0.5 mg/kg): 9.48 min and 11.9 min

SMILES: C=CC(=O)N(C(=O)C1COc2ccc(Cl)cc21)c1cncc2ccccc12 (stereo not given)
- Papp [17]: 435 ×10⁻⁶ cm/s

SMILES: O=C(Nc1cncc2cc(CO)ccc12)C1CCOc2ccc(Cl)cc21 (stereo not given)
- logD: 2.2
- IC50 [2]: 1.4 µM
- AUC(0-inf) ([3]; rat, 0.5 mg/kg): 187 ng·h/mL and 325 ng·h/mL
- AUC(0-t) ([3]; rat, 0.5 mg/kg): 182 ng·h/mL and 321 ng·h/mL
- C0 ([3]; rat, 0.5 mg/kg): 518 ng/mL and 742 ng/mL
- MRT inf ([3]; rat, 0.5 mg/kg): 36.2 min and 29.3 min
- MRT last ([3]; rat, 0.5 mg/kg): 26 min and 34 min
- Vd ([3]; rat, 0.5 mg/kg): 1.31 L/kg and 0.947 L/kg
- clearance ([3]; rat, 0.5 mg/kg): 44.6 mL/min/kg and 26.8 mL/min/kg
- half-life ([3]; rat, 0.5 mg/kg): 27.7 min

SMILES: Cc1cccc(/C=N/Nc2cc(N3CCOCC3)nc(OCCc3ccccn3)n2)c1
- EC50 (SARS-CoV-2 (SARS-CoV-2)): < 0.01 µM and 0.0147 µM and 0.0229 µM
- EC90 (SARS-CoV-2 (SARS-CoV-2)): 0.158 µM and 0.0708 µM and 0.0829 µM

SMILES: COc1ccc(C[C@H](N)C(=O)N[C@H]2[C@@H](O)[C@H](n3cnc4c(N(C)C)ncnc43)O[C@@H]2CO)cc1 (stereo in doubt)
- CC50 [4]: 0.325 µM and 0.831 µM and 0.504 µM

SMILES: O=C(Nc1cncc2ccccc12)C1CCS(=O)(=O)c2ccc(Cl)cc21 (stereo not given)
- logD: 2
- fraction unbound [5]: 0.106 and 0.125
- recovery [5]: 96.9%
- fraction unbound [6]: 0.2
- recovery [6]: 98%
- AUC(0-inf) [15]: 14300 ng·h/mL
- AUC(0-t) [15]: 14300 ng·h/mL
- CL/F [15]: 11.9 mL/min/kg
- MRT inf [15]: 205 min
- MRT last [15]: 205 min
- Tmax [15]: 60 min
- half-life [15]: 115 min
- half-life [16]: 69 min
- microsomal CLint [9]: 10 µL/min/mg
- IC50 [2]: 0.288 µM
- AUC(0-inf) ([3]; mouse, 0.5 mg/kg): 192 ng·h/mL and 207 ng·h/mL
- AUC(0-t) ([3]; mouse, 0.5 mg/kg): 190 ng·h/mL and 204 ng·h/mL
- C0 ([3]; mouse, 0.5 mg/kg): 460 ng/mL and 586 ng/mL
- MRT inf ([3]; mouse, 0.5 mg/kg): 26.5 min and 25.2 min
- MRT last ([3]; mouse, 0.5 mg/kg): 25.1 min and 23.6 min
- Vd ([3]; mouse, 0.5 mg/kg): 1.09 L/kg and 0.972 L/kg
- clearance ([3]; mouse, 0.5 mg/kg): 41.3 mL/min/kg and 38.6 mL/min/kg
- half-life ([3]; mouse, 0.5 mg/kg): 18.4 min and 19.9 min
- AUC(0-inf) ([3]; rat, 2.0 mg/kg): 2890 ng·h/mL
- AUC(0-t) ([3]; rat, 2.0 mg/kg): 2850 ng·h/mL and 2840 ng·h/mL
- C0 ([3]; rat, 2.0 mg/kg): 1400 ng/mL and 1460 ng/mL
- MRT inf ([3]; rat, 2.0 mg/kg): 112 min and 98.4 min
- MRT last ([3]; rat, 2.0 mg/kg): 92.4 min and 101 min
- Vd ([3]; rat, 2.0 mg/kg): 1.13 L/kg and 1.29 L/kg
- clearance ([3]; rat, 2.0 mg/kg): 11.5 mL/min/kg and 11.6 mL/min/kg
- half-life ([3]; rat, 2.0 mg/kg): 78 min and 88.2 min

SMILES: COc1ccc(Cl)cc1OCCNC(=O)c1cc(=O)[nH]c2cccc(OC)c12
- Papp [17]: 109 ×10⁻⁶ cm/s
- IC50 [2]: 0.874 µM
